Reference: ChEMBL document CHEMBL1287790, “Design, synthesis and SAR of thienopyridines as potent CHK1 inhibitors” (Bioorg Med Chem Lett, 2010)

target: T1, Serine/threonine-protein kinase Chk1 (Homo sapiens, UniProt O14757); assay: Inhibition of His-tagged CHK1 after 2 hrs by liquid scintillation counting
T1 sequence (O14757 whole entry): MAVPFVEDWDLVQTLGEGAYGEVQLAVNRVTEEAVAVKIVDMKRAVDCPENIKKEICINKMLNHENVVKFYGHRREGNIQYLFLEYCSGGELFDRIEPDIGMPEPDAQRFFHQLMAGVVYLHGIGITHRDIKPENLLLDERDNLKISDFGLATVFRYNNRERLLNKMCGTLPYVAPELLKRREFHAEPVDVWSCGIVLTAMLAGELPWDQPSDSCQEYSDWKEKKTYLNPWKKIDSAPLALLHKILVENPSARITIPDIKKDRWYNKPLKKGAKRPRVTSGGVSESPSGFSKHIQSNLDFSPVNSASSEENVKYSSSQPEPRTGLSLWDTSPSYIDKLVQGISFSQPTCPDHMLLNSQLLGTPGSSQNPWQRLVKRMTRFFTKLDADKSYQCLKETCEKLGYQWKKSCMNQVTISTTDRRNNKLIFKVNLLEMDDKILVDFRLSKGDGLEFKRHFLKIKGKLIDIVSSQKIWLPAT

Compound	IC50 [nM]
NC(=O)c1cnc(N[C@H]2CCCNC2)c2cc(Br)sc12	56
NC(=O)c1cnc(N[C@H]2CCCNC2)c2cc(-c3cccnc3)sc12	5
NC(=O)c1cnc(N[C@H]2CCCNC2)c2cc(-c3ccc(C(F)(F)F)cc3)sc12	5
NC(=O)c1cnc(N[C@H]2CCCNC2)c2cc(-c3ccc4cc[nH]c4c3)sc12	16
NC(=O)c1cnc(NC[C@@H]2CSCN2)c2cc(-c3ccc(Cl)cc3)sc12	937
NC(=O)c1cnc(N[C@H]2CCCNC2)c2cc(-c3ccc4[nH]ccc4c3)sc12	60
COc1ccc(-c2cc3c(N[C@H]4CCCNC4)ncc(C(N)=O)c3s2)cc1	3
NC(=O)c1cnc(N[C@H]2CCCCNC2)c2cc(-c3ccc(Cl)cc3)sc12	3
NC(=O)c1cnc(N[C@H]2CCCNC2)c2ccsc12	717
Cn1ccc2cc(-c3cc4c(N[C@H]5CCCNC5)ncc(C(N)=O)c4s3)ccc21	8
CN(C)S(=O)(=O)c1cccc(-c2cc3c(N[C@H]4CCCNC4)ncc(C(N)=O)c3s2)c1	20
NC(=O)c1cnc(N[C@H]2CCCNC2)c2cc(-c3ccc(F)cc3)sc12	5
NC(=O)c1cnc(N[C@H]2CCCNC2)c2cc(-c3ccc(Oc4ccccc4)cc3)sc12	4
NC(=O)c1cnc(N[C@H]2CCCNC2)c2cc(-c3ccc(F)cc3F)sc12	9
NC(=O)c1cnc(N[C@H]2CCCNC2)c2cc(-c3ccc4ncccc4c3)sc12	5
NC(=O)c1cnc(N[C@H]2CCCNC2)c2cc(-c3cccc(Cl)c3)sc12	4
NC(=O)c1cnc(N[C@H]2CCCNC2)c2cc(-c3cnc4ccccc4c3)sc12	34
NC(=O)c1cnc(N[C@H]2CCCNC2)c2sc(-c3ccc(Cl)cc3)cc12	4580
NC(=O)c1cnc(N[C@H]2CCCNC2)c2cc(-c3ccccc3Cl)sc12	21
NC(=O)c1cnc(NC[C@@H]2CCCN2)c2cc(-c3ccc(Cl)cc3)sc12	197
NC(=O)c1cnc(N[C@H]2CCCNC2)c2cc(-c3cccc4[nH]ccc34)sc12	5
NC(=O)c1cnc(NC2CNC2)c2cc(-c3ccc(Cl)cc3)sc12	707
NC(=O)c1cnc(N2CCC[C@@H](N)C2)c2cc(-c3ccc(Cl)cc3)sc12	148
CNCCNc1ncc(C(N)=O)c2sc(-c3ccc(Cl)cc3)cc12	7
NC(=O)c1cnc(N[C@H]2CCCNC2)c2cc(-c3ccc(F)c(F)c3)sc12	2
COc1ccc(F)cc1-c1cc2c(N[C@H]3CCCNC3)ncc(C(N)=O)c2s1	24
CN(C)C(=O)c1ccc(-c2cc3c(N[C@H]4CCCNC4)ncc(C(N)=O)c3s2)cc1	1

The remaining molecules from weak to strong by IC50, led by results:

IC50 [nM]	Compound
27100	NC(=O)c1cnc(N[C@@H]2CCCC[C@H]2N)c2cc(-c3ccc(Cl)cc3)sc12
746	NC(=O)Nc1sc(-c2ccc(Cl)cc2)cc1C(=O)N1CCCC[C@H](N)C1
292	NC(=O)c1cnc(NCC2CCCCN2)c2cc(-c3ccc(Cl)cc3)sc12 (centres undefined)
211	NC(=O)c1cnc(N[C@@H]2CCCNC2)c2cc(-c3ccc(Cl)cc3)sc12
67	NC(=O)c1cnc(N[C@H]2CCCNC2)c2cc(C#Cc3cccnc3)sc12
60	NC(=O)c1cnc(N[C@H]2CCCNC2)c2cc(-c3ncccn3)sc12
19	COc1ccccc1-c1cc2c(N[C@H]3CCCNC3)ncc(C(N)=O)c2s1
16	CN(C)S(=O)(=O)c1ccc(-c2cc3c(N[C@H]4CCCNC4)ncc(C(N)=O)c3s2)cc1
14	NC(=O)c1cnc(N[C@H]2CCNC2)c2cc(-c3ccc(Cl)cc3)sc12
9	NC(=O)c1cnc(N[C@H]2CCCNC2)c2nc(-c3ccc(Cl)cc3)sc12
9	NC(=O)c1cnc(N[C@H]2CCCNC2)c2cc(-c3ccc(Cl)c(F)c3)sc12
9	NC(=O)c1cnc(N[C@H]2CCCNC2)c2cc(-c3ccc(OC(F)(F)F)cc3)sc12
7	N#Cc1cccc(-c2cc3c(N[C@H]4CCCNC4)ncc(C(N)=O)c3s2)c1
5	NC(=O)c1cnc(N[C@H]2CCCNC2)c2cc(-c3cc(F)cc(F)c3)sc12
4	NC(=O)c1cnc(N[C@H]2CCCNC2)c2cc(-c3ccc(F)c(Cl)c3)sc12
4	NC(=O)c1cnc(N[C@H]2CCCNC2)c2cc(-c3ccccc3)sc12
4	NC(=O)c1cnc(N[C@H]2CCCNC2)c2cc(-c3ccc4sccc4c3)sc12
3	NC(=O)c1cnc(N[C@H]2CCCNC2)c2cc(-c3cccc(CO)c3)sc12
3	NC(=O)c1cnc(N[C@H]2CCCNC2)c2cc(-c3ccncc3)sc12
3	COc1ccc(-c2cc3c(N[C@H]4CCCNC4)ncc(C(N)=O)c3s2)cn1
3	NC(=O)c1cnc(N[C@H]2CCCNC2)c2cc(-c3cccc(N4CCCC4)c3)sc12
2	CC(=O)Nc1cccc(-c2cc3c(N[C@H]4CCCNC4)ncc(C(N)=O)c3s2)c1
2	NC(=O)c1cnc(N[C@H]2CCCNC2)c2cc(-c3cccc(N)c3)sc12
2	NC(=O)c1cnc(N[C@H]2CCCNC2)c2cc(-c3cc4ccccc4o3)sc12
2	CS(=O)(=O)c1ccc(-c2cc3c(N[C@H]4CCCNC4)ncc(C(N)=O)c3s2)cc1
2	NC(=O)Nc1sc(-c2ccc(Cl)cc2)cc1C(=O)NC1CCCCC1
1	NC(=O)c1ccc(-c2cc3c(N[C@H]4CCCNC4)ncc(C(N)=O)c3s2)cc1
